Target: T1, OATP2B1 (Homo sapiens, UniProt O94956)
T1 construct: expressed in transfected cells; host or cells: HEK293 cells (ATCC) transduced with recombinant OATP2B1 baculovirus
T1 sequence (O94956 1-709): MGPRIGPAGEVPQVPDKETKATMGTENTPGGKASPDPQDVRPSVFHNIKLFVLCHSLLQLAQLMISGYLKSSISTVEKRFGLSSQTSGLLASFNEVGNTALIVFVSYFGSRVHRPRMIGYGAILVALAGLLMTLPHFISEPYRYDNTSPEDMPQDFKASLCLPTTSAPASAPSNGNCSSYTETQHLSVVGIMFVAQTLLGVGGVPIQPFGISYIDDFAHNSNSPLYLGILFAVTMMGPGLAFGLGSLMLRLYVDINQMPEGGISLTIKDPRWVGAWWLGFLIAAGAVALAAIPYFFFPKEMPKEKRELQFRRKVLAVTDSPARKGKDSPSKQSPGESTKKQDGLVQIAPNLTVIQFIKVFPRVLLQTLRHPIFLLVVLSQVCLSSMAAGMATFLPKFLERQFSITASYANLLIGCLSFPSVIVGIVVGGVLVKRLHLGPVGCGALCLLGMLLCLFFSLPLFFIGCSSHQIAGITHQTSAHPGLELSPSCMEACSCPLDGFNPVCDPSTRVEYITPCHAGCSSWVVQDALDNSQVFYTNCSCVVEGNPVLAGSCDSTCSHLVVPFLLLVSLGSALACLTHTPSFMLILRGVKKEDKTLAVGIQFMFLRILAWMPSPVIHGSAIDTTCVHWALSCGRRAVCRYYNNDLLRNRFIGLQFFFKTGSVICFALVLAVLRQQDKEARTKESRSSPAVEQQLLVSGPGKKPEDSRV
Experiment: HEK293 uptake assay, OATP2B1 (5-carboxyfluorescein substrate)
Type: cell-based
Protocol: The inhibition of OATP2B1 was studied using a HEK293 cell-based uptake assay. HEK293 cells were cultured in DMEM supplemented with 10% FBS at 37 °C and 5% CO2 and seeded at 22,500 cells/well on 96-well plates coated with 0.1 mg/mL poly-D-lysine. After 24 h, the medium was replaced with a transduction mix (DMEM with 10% FBS, 5 mM sodium butyrate, and recombinant OATP2B1 or enhanced yellow fluorescent protein [eYFP, negative control] baculoviruses). The baculoviruses were produced as previously described. The uptake assay was performed after approximately 48 h. […] Test solutions also contained the substrate. Cells were washed with warm transport buffer and preincubated at 37 °C. Preincubation solutions were replaced with test solutions and incubated at 37 °C with shaking at 250 rpm. Transport was terminated by aspirating the test solution and washing the wells with an ice-cold transport buffer (150 μL) three times. Wells were left to dry, and cells were lysed with 0.1 M NaOH. […] Total protein concentration was measured from six random wells with a Pierce Coomassie (Bradford) Assay kit (Thermo Fisher Scientific) to ensure a similar protein concentration in the OATP2B1 and eYFP wells.

CC1=C(/C=C/C(C)=C/C=C/C(C)=C/C=C/C=C(C)/C=C/C=C(C)/C=C/C2=C(C)CCCC2(C)C)C(C)(C)CCC1 [beta-carotene]
IC50 (5-carboxyfluorescein 2 μM, HEK293 cells, pH 6, n = 3, read-out: IC50 (95% CI), OATP2B1): 27.5 µM | inhibition at 50 μM (human, HEK293 cells transduced with recombinant OATP2B1 baculovirus, pH 6, probe 5-carboxyfluorescein 2 μM, food additive 50 μM, n = 1, read-out: inhibition of OATP2B1-mediated uptake): ≥ 50%

From article PMC12406256, “Food Additives Inhibit Intestinal Drug Transporters but Have Limited Effect on In Vitro Drug Permeability” (Molecular Pharmaceutics, 2025)
